Source: patent EP4745134A1 (Jiangsu Yahong Meditech Co., Ltd., priority 2023, dated 2025)
Read-outs that look alike come from different tables or passages of the source.

Assays:
[1] = system: HCT116-WT cells; test: Inhibitory activity against cell proliferation (CellTiter Glo, 6 days), HCT116-WT; type: cell-based; details: HCT116-WT cells, 6 days, CellTiter Glo, read-out: HCT116-WT IC50
Description: (§1) HCT116-WT (ATCC, CCL-247) and HCT116 MTAP KO (Nanjing Cobioer, CBP75002) cells were seeded into white low-transparency sterile 96-well cell culture plates at a density of 250 cells per well respectively, and the culture medium was McCoy's 5A Medium+10% FBS. The plates were placed under the condition of 37°C and 5% CO2 to be cultured overnight. The cells were treated with 4-fold serially diluted compounds of 8 concentration points starting at an initial concentration of 10000 nM, and the last two columns were used as control wells to which only DMSO was added. The drug-treated cells were further cultured for 6 days. On day 7, CellTiter Glo® reagent was added at 50 uL per well, and after reaction under shaking for 10 minutes at room temperature, the chemiluminescence signals were detected for the well plates through the chemiluminescence detection method using a BIOTEK H1 multifunctional microplate-reader. The IC50 values for inhibition of the compounds on cell viability were calculated in X1fit 5.0 software. Table 2. IC50 values for inhibition of the compounds on HCT116 MTAP KO/WT cell growth

[2] = system: HCT116 MTAP KO cells; test: Inhibitory activity against cell proliferation (CellTiter Glo, 6 days), HCT116 MTAP KO; type: cell-based; details: for IC50: HCT116 MTAP KO cells, 6 days, CellTiter Glo, read-out: HCT116 MTAP KO IC50; for Selectivity HCT 116-WT/ HCT116 MTAP KO: ratio of IC50 HCT116-WT / HCT116 MTAP KO
Description: as §1

IC50 ([1]; 144 h) [nM]	IC50 ([2]; Homo sapiens, HCT-116, 144 h) [nM]	IC50 [1] [nM]	IC50 [2] [nM]	SMILES	Selectivity HCT 116-WT/ HCT116 MTAP KO [2]
2700	212	–	–	Cc1cc2cc(C(=O)N(Cc3ccc(-c4nnn(C)n4)cn3)N(C)c3ncccn3)ccc2nc1N [Example 231, 2-amino-N',3-dimethyl-N-((5-(2-methyl-2H-tetrazol-5-yl)pyridin-2-yl)methyl)-N'-(pyrimidin-2-yl)quinoline-6-carbohydrazide]	12.71
1770	55	–	–	Cc1cc2nc(N)c3cnn(C)c3c2cc1C(=O)N1CCCN1c1ncc(-c2cnn(C(F)(F)F)c2)cc1F [Example 480, (4-amino-1,7-dimethyl-1H-pyrazolo[4,3-c]quinolin-8-yl)(2-(3-fluoro-5-(1-(trifluor omethyl)-1H-pyrazol-4-yl)pyridin-2-yl)pyrazolidin-1-yl)methanone]	32.16
1020	76	–	–	Cc1cc2cc(C(=O)N(Cc3ccc(-c4ccc(N(C)C(C)C)nc4)cn3)N(C)c3ncccn3)ccc2nc1N [Example 257, 2-amino-N-((6'-(isopropyl(methyl)amino) -[3,3'-bipyridin]-6-yl)methyl)-N',3-dimet hyl-N'-(pyrimidin-2-yl)quinoline-6-carbo hydrazide]	13.42
4830	415	–	–	Cc1cc2nc(N)c3cnn(C)c3c2cc1C(=O)N1CCCN1c1ncc(C2CCN(C)CC2)cc1F [Example 485, (4-amino-1,7-dimethyl-1H-pyrazolo[4,3-c]quinolin-8-yl)(2-(3-fluoro-5-(1-methylpiperid-4-yl)pyridin-2-yl)pyrazolidin-1-yl)methanone]	11.64
716	31	–	–	Cc1cc2cc(C(=O)N(Cc3ccc(-c4ccc(N5CCN(C)C(=O)C5)nc4)cn3)N(C)c3ncccn3)ccc2nc1N [Example 258, 2-amino-N',3-dimethyl-N-((6'-(4-methyl-3-oxopiperazin-1-yl)-[3,3'-bipyridin]-6-yl)methyl)-N'-(pyrimidin-2-yl)quinoline-6-carbohydrazide]	23.10
3420	290	–	–	Cc1cc2cc(C(=O)N(Cc3ccc(-c4cc[nH]c(=O)c4)cn3)N(C)c3ncccn3)ccc2nc1N [Example 138, 2-amino-N',3-dimethyl-N-((2'-oxo-1',2'-dihydro-[3,4'-bipyridine]-6-yl)methyl)-N'-(pyrimidin-2-yl)quinoline-6-carbohydrazide]	11.79
716	26	–	–	Cc1cc2cc(C(=O)N(Cc3ccc(-c4ccn(C)c(=O)c4)cn3)N(C)c3ncccn3)ccc2nc1N [Example 209, 2-amino-N',3-dimethyl-N-((1'-methyl-2'-oxo-1',2'-dihydro-[3,4'-bipyridine]-6-yl)methyl)-N'-(pyrimidin-2-yl)quinoline-6-car bohydrazide]	27.54
684	40	–	–	Cc1cc2cc(C(=O)N(Cc3ccc(-c4ccc(N(C)C5CCC5)nc4)cn3)N(C)c3ncccn3)ccc2nc1N [Compound 261, 2-amino-N-((6'-(cyclobutyl(methyl)amino)-[3,3'-bipyridin]-6-yl)methyl)-N',3-dim ethyl-N'-(pyrimidin-2-yl)quinoline-6-carb ohydrazide]	17.10
466	30	–	–	[2H]C([2H])([2H])c1cc2cc(C(=O)N(Cc3ccc(C(F)(F)F)cn3)N(C)c3ncccc3F)ccc2nc1N [Example 309, 2-amino-N'-(3-fluoropyridin-2-yl)-N'-methyl-3-(methyl-d3)-N-((5-(trifluoromethyl)pyridin-2-yl)methyl)quinoline-6-carbohydrazide]	15.53
–	–	863	39	Cc1cc2cc(C(=O)N(Cc3ccc(-c4cnn(C(F)F)c4)cn3)N(C)c3ncccn3)ccc2nc1N [Example 213, 2-amino-N-((5-(1-(difluoromethyl)-1H-pyrazol-4-yl)pyridin-2-yl)methyl)-N',3-di methyl-N'-(pyrimidin-2-yl)quinoline-6-c arbohydrazide]	22.13
492	25	–	–	Cc1cc2cc(C(=O)N(Cc3ccc(-c4ccns4)cn3)N(C)c3ncccn3)ccc2nc1N [Example 210, 2-amino-N-((5-(isothiazol-5-yl)pyridin-2-yl)methyl)-N',3-dimethyl-N'-(pyrimidin-2-yl)quinoline-6-carbohydrazide]	19.68
921	18	–	–	CCn1cc(-c2ccc(CN(C(=O)c3ccc4nc(N)c(C)cc4c3)N(C)c3ncccn3)nc2)cn1 [Example 206, 2-amino-N-((5-(1-ethyl-1H-pyrazol-4-yl)pyridin-2-yl)methyl)-N',3-dimethyl-N'-(pyrimidin-2-yl)quinoline-6-carbohydrazide]	51.17
3040	94	–	–	Cc1cc2nc(N)c3cnn(C)c3c2cc1C(=O)N1CCCN1c1ncc(C2=CCN(C)CC2)cc1F [Example 470, (4-amino-1,7-dimethyl-1H-pyrazolo[4,3-c]quinolin-8-yl)(2-(5-fluoro-1'-methyl-1', 2',3',6'-tetrahydro-[3,4'-bipyridine]-6-yl)pyrazolidin-1-yl)methanone]	32.33
3040	94	–	–	[2H]C([2H])([2H])c1cc2cc(C(=O)N(Cc3ccc(C(F)(F)F)cn3)Nc3ncccn3)ccc2nc1N [Example 312, 2-amino-3-(methyl-D3)-N'-(pyrimidin-2-yl)-N-((5-(trifluoromethyl)pyridin-2-yl)methyl)quinoline-6-carbohydrazide]	32.33
1320	51	–	–	Cc1cc2cc(C(=O)N(Cc3ccc(-c4cnn(C)n4)cn3)N(C)c3ncccn3)ccc2nc1N [Example 228, 2-amino-N',3-dimethyl-N-((5-(2-methyl-2H-1,2,3-triazol-4-yl)pyridin-2-yl)methyl)-N'-(pyrimidin-2-yl)quinoline-6-carbohy drazide]	25.92
90	4.4	–	–	CN(c1ncccc1F)N(Cc1ccc(C(F)(F)F)cn1)C(=O)c1ccc2nc(N)c3cnn(C)c3c2c1 [Example 74, 4-amino-N'-(3-fluoropyridin-2-yl)-N ',1-dimethyl-N-((5-(trifluoromethyl)pyridin-2-yl)methyl)-1H-pyrazolo[4,3-c]quinoline-8-carbohydrazide]	20.45
3420	140	–	–	Cc1csc(-c2ccc(CN(C(=O)c3ccc4nc(N)c(C)cc4c3)N(C)c3ncccn3)nc2)n1 [Example 227, 2-amino-N',3-dimethyl-N-((5-(4-methylthiazol-2-yl)pyridin-2-yl)methyl)-N'-(pyrimidin-2-yl)quinoline-6-carbohydrazide]	24.44
1910	66	–	–	Cc1cc2cc(C(=O)N(Cc3ccc(C(C)(C)F)cn3)N(C)c3ncccn3)ccc2nc1N [Example 288, 2-amino-N-((5-(2-fluoroprop-2-yl)pyridin-2-yl)methyl)-N',3-dimethyl-N'-(pyrimidin-2-yl)quinoline-6-carbohydrazide]	28.91
279	27	–	–	Cc1cc2cc(C(=O)N(Cc3ccc(-c4nc(C#N)cs4)cn3)N(C)c3ncccn3)ccc2nc1N [Example 230, 2-amino-N-((5-(4-cyanothiazol-2-yl)pyridin-2-yl)methyl)-N',3-dimethyl-N'-(pyrimidin-2-yl)quinoline-6-carbohydrazide]	10.33
3140	216	–	–	Cc1cc2cc(C(=O)N(Cc3ccc4sc(C5CCN(C)CC5)nc4c3)N(C)c3ncccn3)ccc2nc1N [Example 219]	14.53
1190	75	–	–	Cc1csc(-c2ccc(CN(C(=O)c3ccc4nc(N)c(C)cc4c3)N(C)c3ncccn3)nc2)c1 [Example 146, 2-amino-N',3-dimethyl-N-((5-(4-methylthien-2-yl)pyridin-2-yl)methyl)-N'-(pyrimidin-2-yl)quinoline-6-carbohydrazide]	15.85
3360	192	–	–	Cc1cc2cc(C(=O)N(Cc3ccc(-c4ccc(=O)[nH]c4)cn3)N(C)c3ncccn3)ccc2nc1N [Example 143, 2-amino-N',3-dimethyl-N-((6'-oxo-1',6'-dihydro-[3,3'-bipyridine]-6-yl)methyl)-N'-(pyrimidin-2-yl)quinoline-6-carbohydrazide]	17.49
640	35	–	–	Cc1cc2cc(C(=O)N(Cc3ccc(-c4cnn(C(F)(F)F)c4)cn3)N(C)c3ncccc3F)ccc2nc1N [Example 170, 2-amino-N'-(3-fluoropyridin-2-yl)-N ',3-dimethyl-N-((5-(1-(trifluoromethyl)-1 H-pyrazol-4-yl)pyridin-2-yl)methyl)quin oline-6-carbohydrazide]	18.29
